Measurements as given in publication PMC6318325, “The conformational changes coupling ATP hydrolysis and translocation in a bacterial DnaB helicase” (Nature Communications, 2019).

Key:
HpDnaB (DnaB) [1] = target: T1, HpDnaB (DnaB) (Helicobacter pylori, UniProt O25916); assay: solid-state […] CP and […] MAS NMR of sedimented complex; conditions: no DNA, NMR at 278 K, nucleotide-binding domain
T1 construct: full length (488 residues), no tag stated (heparin and anion exchange purification); pACYC-duet1, E. coli BL21 Star (DE3); 13C-15N labelled for NMR; hexameric assembly, dodecamer named in anisotropy assay; nucleotide site at interface of two monomers
T1 sequence (O25916 1-488): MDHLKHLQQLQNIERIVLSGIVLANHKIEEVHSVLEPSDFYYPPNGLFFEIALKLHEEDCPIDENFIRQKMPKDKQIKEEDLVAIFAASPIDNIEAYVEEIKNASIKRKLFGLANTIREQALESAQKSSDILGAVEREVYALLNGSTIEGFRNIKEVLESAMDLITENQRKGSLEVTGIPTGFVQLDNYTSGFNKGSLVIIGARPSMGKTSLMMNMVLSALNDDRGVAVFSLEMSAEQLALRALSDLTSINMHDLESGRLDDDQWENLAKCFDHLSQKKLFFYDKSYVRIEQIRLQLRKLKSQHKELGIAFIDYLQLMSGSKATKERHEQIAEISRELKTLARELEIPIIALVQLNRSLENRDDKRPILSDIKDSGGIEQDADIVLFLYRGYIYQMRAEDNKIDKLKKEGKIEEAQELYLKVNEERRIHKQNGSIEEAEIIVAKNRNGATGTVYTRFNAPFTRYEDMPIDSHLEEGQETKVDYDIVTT

HpDnaB (DnaB) [2] = target: T1, HpDnaB (DnaB); assay: […] solid-state NMR, ATP turned over to ADP during sample preparation; type: biochemical; conditions: 5 mM MgCl2, 5 mM ATP, pH 7.5, 130 mM NaCl, 4 °C, no DNA
[3] = target: T2, HpDnaB replicative helicase (Helicobacter pylori, UniProt O25916 1-488); assay: fluorescence anisotropy; 0.5 mM ATP, 5 mM MgCl2; Hill fit h 0.6509; Anisotropy: 20 mM Hepes pH 7.5, 5 mM MgCl2, 50 mM potassium acetate, 5% glycerol, 0.2 mg/ml BSA, 0.5 mM nucleotide, 1 nM DNA, 0-8 uM DnaB (dodecamer), temperature not stated; NMR: protein buffer 2.5 mM sodium phosphate pH 7.5, 130 mM NaCl, 278 K; conditions: protein: recombinant; chain copies: 12; label: 5'-FAM; single strand
T2 sequence: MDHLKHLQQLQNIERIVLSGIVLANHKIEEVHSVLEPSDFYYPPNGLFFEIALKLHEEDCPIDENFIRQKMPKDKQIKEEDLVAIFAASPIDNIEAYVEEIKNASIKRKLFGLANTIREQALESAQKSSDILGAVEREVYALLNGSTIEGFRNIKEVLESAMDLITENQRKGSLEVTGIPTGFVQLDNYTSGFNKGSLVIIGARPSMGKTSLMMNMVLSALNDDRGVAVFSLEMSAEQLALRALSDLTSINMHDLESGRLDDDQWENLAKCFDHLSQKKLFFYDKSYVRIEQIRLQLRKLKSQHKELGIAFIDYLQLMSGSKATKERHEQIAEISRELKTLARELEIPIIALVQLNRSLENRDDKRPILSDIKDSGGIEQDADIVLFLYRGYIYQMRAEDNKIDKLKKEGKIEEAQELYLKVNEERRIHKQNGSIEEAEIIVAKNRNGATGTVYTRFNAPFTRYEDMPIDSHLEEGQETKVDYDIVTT

[4] = target: T2, HpDnaB replicative helicase; assay: fluorescence anisotropy; 0.5 mM ADP:AlF4-, 5 mM MgCl2; Hill fit h 1.160; Anisotropy: 20 mM Hepes pH 7.5, 5 mM MgCl2, 50 mM potassium acetate, 5% glycerol, 0.2 mg/ml BSA, 0.5 mM nucleotide, 1 nM DNA, 0-8 uM DnaB (dodecamer), temperature not stated; NMR: protein buffer 2.5 mM sodium phosphate pH 7.5, 130 mM NaCl, 278 K; conditions: protein: recombinant; chain copies: 12; label: 5'-FAM; single strand
[5] = target: T2, HpDnaB replicative helicase; assay: fluorescence anisotropy; 0.5 mM AMP-PCP, 5 mM MgCl2; Hill fit; Supplementary Table 4 fit instead prints 47.43 +/- 2.648, h 0.7349 (column order inferred); Anisotropy: 20 mM Hepes pH 7.5, 5 mM MgCl2, 50 mM potassium acetate, 5% glycerol, 0.2 mg/ml BSA, 0.5 mM nucleotide, 1 nM DNA, 0-8 uM DnaB (dodecamer), temperature not stated; NMR: protein buffer 2.5 mM sodium phosphate pH 7.5, 130 mM NaCl, 278 K; conditions: protein: recombinant; chain copies: 12; label: 5'-FAM; single strand

Nc1ncnc2c1ncn2[C@@H]1O[C@H](COP(=O)(O)OP(=O)(O)O)[C@@H](O)[C@H]1O [ADP]
solid-state 31P CP and 13C MAS NMR of sedimented complex (HpDnaB (DnaB) [1]; 5 mM MgCl2, 5 mM ADP, pH 7.5, 130 mM NaCl): The nucleotides are thus indeed bound to the protein.

Nc1ncnc2c1ncn2[C@@H]1O[C@H](COP(=O)(O)OP(=O)(O)CP(=O)(O)O)[C@@H](O)[C@H]1O [AMP-PCP]
solid-state 31P CP and 13C MAS NMR of sedimented complex (HpDnaB (DnaB) [1]; 5 mM MgCl2, pH 7.5, 130 mM NaCl, 15 mM nucleotide): The nucleotides are thus indeed bound to the protein.

Nc1ncnc2c1ncn2[C@@H]1O[C@H](COP(=O)(O)OP(=O)(O)OP(=O)(O)O)[C@@H](O)[C@H]1O [ATP]
31P solid-state NMR, ATP turned over to ADP during sample preparation (HpDnaB (DnaB) [2]): Addition of ATP to the apo form yields the ADP spectrum, implying that ATP is hydrolyzed

TTTTTTTTTTTTTTTTTTTT (ssDNA) [5'-FAM-(dT)20]
Kd [3]: 0.014 ± 0.003 µM | Kd [4]: 0.00083 ± 3e-05 µM | Kd [5]: 0.058 ± 0.014 µM
